Test results published in patent US6420535B1, “6-O-carbamate ketolide derivatives” (Abbott Laboratories, priority 1999, dated 2002).
Values after ≈ are worked out from the molar mass of the structure shown.

Tests used:
Assay type in all cases: cell-based
[1] = test system: Streptococcus pneumonia ATCC63O3; test: Separate in vitro antibacterial assay (H. Influenza / S. Pneumonia); details: protocol as for Table 1, unit assumed
Procedure: (§1) Representative compounds of the present invention were assayed in vitro for antibacterial activity as follows: Twelve petri dishes containing successive aqueous dilutions of the test compound mixed with 10 mL of sterilized Brain Heart Infusion (BHI) agar (Difco 0418-01-5) were prepared. Each plate was inoculated with 1:100 (or 1:10 for slow-growing strains, such as Micrococcus and Streptococcus) dilutions of up to 32 different microorganisms, using a Steers replicator block. The inoculated plates were incubated at 35-37° C. for 20 to 24 hours. In addition, a control plate, using BHI agar containing no test compound, was prepared and incubated at the beginning and end of each test.
(§2) An additional plate containing a compound having known susceptibility patterns for the organisms being tested and belonging to the same antibiotic class as the test compound was also prepared and incubated as a further control, as well as to provide test-to-test comparability. Erythromycin A was used for this purpose.
(§3) After incubation, each plate was visually inspected. The minimum inhibitory concentration (MIC) was defined as the lowest concentration of drug yielding no growth, a slight haze, or sparsely isolated colonies on the innoculum spot as compared to the growth control. The results of this assay, which relate to the antibacterial activity of the compounds of the invention, are reported below in Table 1.
(§4) In a separate assay representative compounds of the invention were assayed in vitro for antibacterial activity against H. Influenza Dill AMP R strain and S. Pneumonia, according to the protocol described above. The results of this assay, which relate to the antibacterial activity of compounds of the invention against the H. Influenza Dill AMP R and S. Pneumonia organisms, are shown below in Table 2.

[2] = test system: Streptococcus pneumonia 5649; test: as above; details: protocol as for Table 1, unit assumed
Procedure: as §1, §2, §3, §4

[3] = test system: Streptococcus pneumonia GYR 1171; test: as above; details: protocol as for Table 1, unit assumed
Procedure: as §1, §2, §3, §4

[4] = test system: Haemophilis influenzae DILL AMP R; test: as above; details: protocol as for Table 1, unit assumed
Procedure: as §1, §2, §3, §4

[5] = test system: Nocardia asteroides ATCC997O; test: In vitro antibacterial MIC, agar dilution (BHI agar); details: 35-37° C., 20 to 24 hours, unit assumed
Procedure: as §1, §2, §3

[6] = test system: Mycobacterium smegmatis ATCC 114; test: as above; details: 35-37° C., 20 to 24 hours, unit assumed
Procedure: as §1, §2, §3

[7] = test system: Micrococcus luteus ATCC 9341; test: as above; details: 35-37° C., 20 to 24 hours, unit assumed
Procedure: as §1, §2, §3

[8] = test system: Streptococcus pyogenes 930; test: as above; details: 35-37° C., 20 to 24 hours, unit assumed
Procedure: as §1, §2, §3

[9] = test system: Escherichia coli JUHL; test: as above; details: 35-37° C., 20 to 24 hours, unit assumed
Procedure: as §1, §2, §3

[10] = test system: Staphylococcus epidermidis 3519; test: as above; details: 35-37° C., 20 to 24 hours, unit assumed
Procedure: as §1, §2, §3

[11] = test system: Staphylococcus aureus CMX 642A; test: as above; details: 35-37° C., 20 to 24 hours, unit assumed
Procedure: as §1, §2, §3

[12] = test system: Staphylococcus aureus ATCC 6538P; test: as above; details: 35-37° C., 20 to 24 hours, unit assumed
Procedure: as §1, §2, §3

[13] = test system: Staphylococcus aureus NCTC10649M; test: as above; details: 35-37° C., 20 to 24 hours, unit assumed
Procedure: as §1, §2, §3

[14] = test system: Streptococcus bovis A-5169; test: as above; details: 35-37° C., 20 to 24 hours, unit assumed
Procedure: as §1, §2, §3

[15] = test system: Staphylococcus aureus 1775; test: as above; details: 35-37° C., 20 to 24 hours, unit assumed
Procedure: as §1, §2, §3

[16] = test system: Staphylococcus aureus A5177; test: as above; details: 35-37° C., 20 to 24 hours, unit assumed
Procedure: as §1, §2, §3

[17] = test system: Micrococcus luteus ATCC 4698; test: as above; details: 35-37° C., 20 to 24 hours, unit assumed
Procedure: as §1, §2, §3

[18] = test system: Candida albicans CCH 442; test: as above; details: 35-37° C., 20 to 24 hours, unit assumed
Procedure: as §1, §2, §3

[19] = test system: Escherichia coli SS; test: as above; details: 35-37° C., 20 to 24 hours, unit assumed
Procedure: as §1, §2, §3

[20] = test system: Streptococcus pyogenes PIU 2548; test: as above; details: 35-37° C., 20 to 24 hours, unit assumed
Procedure: as §1, §2, §3

[21] = test system: Streptococcus agalactiae CMX 508; test: as above; details: 35-37° C., 20 to 24 hours, unit assumed
Procedure: as §1, §2, §3

[22] = test system: Staphylococcus aureus CMX 553; test: as above; details: 35-37° C., 20 to 24 hours, unit assumed
Procedure: as §1, §2, §3

[23] = test system: Staphylococcus aureus A-5278; test: as above; details: 35-37° C., 20 to 24 hours, unit assumed
Procedure: as §1, §2, §3

[24] = test system: Streptococcus pyogenes EES61; test: as above; details: 35-37° C., 20 to 24 hours, unit assumed
Procedure: as §1, §2, §3

[25] = test system: Escherichia coli DC-2; test: as above; details: 35-37° C., 20 to 24 hours, unit assumed
Procedure: as §1
(§5) An additional plate containing a compound having known susceptibility patterns for the organisms being tested and belonging to the same antibiotic class as the test compound was also prepared and incubated as a further control, as well as to provide test-to-test comparability.
(§6) After incubation, each plate was visually inspected. The minimum inhibitory concentration (MIC) was defined as the lowest concentration of drug yielding no growth, a slight haze, or sparsely isolated colonies on the innoculum spot as compared to the growth control.

[26] = test system: Streptococcus pneumonia 5979; test: Separate in vitro antibacterial assay (H. Influenza / S. Pneumonia); details: protocol as for Table 1, unit assumed
Procedure: as §1, §5, §6

Row | Structure (SMILES) | MIC (antibacterial activity, Table 2) [1] [µg/mL] | MIC (antibacterial activity, Table 2) [2] [µg/mL] | MIC (antibacterial activity, Table 2) [3] [µg/mL] | MIC (antibacterial activity, Table 2) [4] [µg/mL] | MIC [5] [µg/mL] | MIC [6] [µg/mL] | MIC [8] [µg/mL] | MIC [9] [µg/mL] | MIC [10] [µg/mL] | MIC [12] [µg/mL] | MIC [13] [µg/mL] | MIC [14] [µg/mL] | MIC [15] [µg/mL] | MIC [16] [µg/mL] | MIC [17] [µg/mL] | MIC [18] [µg/mL] | MIC [19] [µg/mL] | MIC [20] [µg/mL] | MIC [21] [µg/mL] | MIC [23] [µg/mL] | further results
1 | CC[C@H]1OC(=O)[C@H](C)[C@@H](O[C@H]2C[C@@](C)(OC)[C@@H](O)[C@H](C)O2)[C@H](C)[C@@H](O[C@@H]2O[C@H](C)C[C@H](N(C)C)[C@H]2O)[C@](C)(O)C[C@@H](C)C(=O)[C@H](C)[C@@H](O)[C@]1(C)O [Ery. A, Erythromycin A, reference compound] | 0.06 (≈ 0.0818 µM) | 16 (≈ 21.8 µM) | 0.06 (≈ 0.0818 µM) | 4 (≈ 5.45 µM) | 0.1 (≈ 0.136 µM) | 3.1 (≈ 4.22 µM) | > 100 | > 100 | 0.39 (≈ 0.531 µM) | 0.2 (≈ 0.273 µM) | 0.39 (≈ 0.531 µM) | 0.02 (≈ 0.0273 µM) | > 100 | 3.1 (≈ 4.22 µM) | 0.2 (≈ 0.273 µM) | > 100 | 0.78 (≈ 1.06 µM) | 6.2 (≈ 8.45 µM) | 0.05 (≈ 0.0681 µM) | > 100 | MIC [7]: 0.05 µg/mL (≈ 0.0681 µM); MIC [11]: 0.39 µg/mL (≈ 0.531 µM); MIC [22]: 0.39 µg/mL (≈ 0.531 µM); MIC [24]: 0.05 µg/mL (≈ 0.0681 µM); MIC [25]: > 100 µg/mL
2 | CCC1OC(=O)C(C)C(=O)C(C)C(OC2OC(C)CC(N(C)C)C2O)C(C)(OC(=O)NC(=O)c2ccccc2)CC(C)C(=NO)C(C)C2OC(=O)OC12C (centres unmarked) [Ex. 1, Compound of Formula (IV-A): wherein A is —O—; X is N—OH; —M— is Absent, R^2 is Phenyl; and R^p is Hydrogen] | 0.03 | 2 | 0.03 | 8 | 0.78 | 50 | > 100 | 50 | 0.39 | 0.39 | 0.39 | 0.02 | > 100 | 0.39 | 0.39 | > 100 | 0.39 | 1.56 | 0.02 | > 100 | MIC [24]: 0.02 µg/mL; MIC (antibacterial activity, Table 2) [26]: > 64 µg/mL; MIC [25]: 100 µg/mL
3 | CCC1OC(=O)C(C)C(=O)C(C)C(OC2OC(C)CC(N(C)C)C2O)C(C)(OC(N)=O)CC(C)C(=NO)C(C)C2OC(=O)OC12C (centres unmarked) [Ex. 2, Compound of Formula (II-A), wherein A is —O—; X is N—OH; —M— is Absent; R^2 is Hydrogen, and R^p is Hydrogen] | 0.25 | 8 | 0.25 | 8 | 6.2 | 50 | > 100 | > 100 | 1.56 | 1.56 | 1.56 | 0.2 | > 100 | 3.1 | 1.56 | > 100 | 1.56 | 3.1 | 0.39 | > 100 | MIC [24]: 0.39 µg/mL; MIC (antibacterial activity, Table 2) [26]: > 128 µg/mL; MIC [25]: > 100 µg/mL
